Laboratory results reported in patent US20260216055A1, “PLANT-MINERAL COMPOSITION FOR PH-DEPENDENT REGULATION OF TYPE 3 AQUAPORINS BASED ON ALOE BARBADENSIS” (SKYLAB AG, priority 2022, published 2026).

Legend:
[1] = aloin in the extract composition; cited from earlier work
Type 3 aquaporins (AQP3) = test: Amount of Type 3 aquaporins in skin keratinocytes (HaCaT, sandwich ELISA); assay type: cell-based; conditions: Table 7 experiment, 24 hours, Aloe extract 0.01%, trimethylglycine 1%, combination 0.01% + 1% equivalent to active ingredients, Hydagen Aquaporin 1% for the raw material
Excerpt: At the second stage, the definition of the amount of Type 3 aquaporins in keratinocytes after cultivation under the standard conditions, using the maximum non-toxic concentration of the component from the previous text. To determine the amount of AQP3, a commercially available test with the use of sandwich-type enzyme-linked immunoassay was used. Cells of HaCaT line with the density of 10^5 cells per well were introduced to the 96-well plate. On the next day, the cell medium was removed and replaced with DMEM+5% FBS 50 μL fresh cell medium to maintain cell growth. Next, 50 μL of samples of the composition under the invention was added, and cultivation was performed for 24 hours. In all the tests, 0.20% sodium chloride was added to the cell medium to regulate osmotic balance and to create physiological conditions to cultivate skin cells. The cultivating environment conditions were as follows: humidified atmosphere with 5% CO2 at 37° C. After incubation, cell supernatant was collected, and the amount of Type 3 aquaporins in skin keratinocytes was determined with ELISA method. […] Only after binding the 3 components of the reagent with AQP3 a stable color could be achieved, which was fixed with sulphuric acid and spectropotometrically detected at 450±10 nm wave length. […]

HaCaT cells = test: Cytotoxicity estimation of the components on skin keratinocytes (MTT); assay type: cell-based; conditions: 24 hours
Excerpt: The study method is based on the definition of the amount of Type 3 aquaporins in epidermal keratinocytes after adding the components of the composition into HaCaT cell culture medium. At the first stage, cytotoxicity of the components is estimated depending on the concentration of components in the composition, be determining the number of survived cells according to MTT concentration with a color dilution method. Cells of HaCaT line were used in the amount of 10 000 cells per well in a 96-well plate. The testing facilities were as follows: humidified atmosphere with 5% CO2 at 37° C. Incubation time equaled 24 hours. For the negative control, purified water without any components of the composition was used. The number of survived cells was registered with MTT at 570 nm. The number of biological replicates was 3.

skin = conditions: 2% in body cleansers, 12 hours after the contact with the product; cited from earlier work

## O=C1c2c(O)cccc2C([C@@H]2O[C@H](CO)[C@@H](O)[C@H](O)[C@H]2O)c2cc(CO)cc(O)c21 (stereo partly drawn) [Aloin]
[1]
  UV radiation neutralized when applied on skin surface: up to 30%

## C[N+](C)(C)CC(=O)[O-] [Trimethylglycine, trimethylglycine]
Type 3 aquaporins (AQP3)
  Increase of AQP3 amount in relation to the negative control, %: +17.92%
Type 3 aquaporins (AQP3); negative control 5.58 ± 0.24
  Amount of AQP3: 6.58 ± 1.08 ng/mL
HaCaT cells; 0.03% (weight %) in medium
  Vitality of cells, % when adding the components of the composition into the cultural medium: 98.8 ± 3.47%
HaCaT cells; 0.10% (weight %) in medium
  Vitality of cells, % when adding the components of the composition into the cultural medium: 99.9 ± 1.47%
HaCaT cells; 0.25% (weight %) in medium
  Vitality of cells, % when adding the components of the composition into the cultural medium: 95.4 ± 2.94%
HaCaT cells; 1.00% (weight %) in medium
  Vitality of cells, % when adding the components of the composition into the cultural medium: 93.5 ± 1.66%
HaCaT cells; 10.00% (weight %) in medium
  Vitality of cells, % when adding the components of the composition into the cultural medium: 90.3 ± 6.82%

## CCCCCCCCCCCCOS(=O)(=O)[O-].[Na+] [sodium lauryl sulfate]
skin
  Transepidermal water loss: 68.9 g/m^2/h
